From patent publication US20250127913A1, “BIFUNCTIONAL FOLATE RECEPTOR BINDING COMPOUNDS” (LYCIA THERAPEUTICS, INC., priority 2021, published 2025) come the findings set out here.

In experiment [1] the target is TNFα (Homo sapiens (Human), UniProt P01375). The experiment is described as follows: TNFα binding assay (time-resolved FRET, biotinylated TNFα). To be noted: 1 nM biotinylated TNFα, 80 nM probe, 16 hr incubation; read-out: TNF-HTRF-biotin. As to the method:
TNFα binding was measured in black 96-well plates using a time-resolved FRET assay using a previously described fluorescence acceptor TNFα probe (Xiao et al J. Med. Chem. 2020). Biotinylated TNFα was purchased from Acro Biosystems. Binding reactions were conducted in 20 mM Hepes (pH 7.5) 10 mM MgCl2 0.015% Tween-20 0.05 mg/ml BSA 2% DMSO with 1 nM TNFα 0.5 nM Streptavidin-Tb and 80 nM probe. Test compounds were resuspended in DMSO and 3-fold serial dilutions were made at 100× final concentrations. Fluorescence was measured using λex=340 nm, λem=490, 520 nm on an SpectraMax M5e plate reader (Molecular Devices) after 16 hr incubation time. Dose responses were conducted in duplicate and normalized to the response with DMSO (high) and 100 nM (R)-3-(1-((3-chloro-7-fluoro-6-(2-(2-hydroxypropan-2-yl)pyrimidin-5-yl)-2-methyl-1,5-naphthyridin-4-yl)amino)ethyl)-4-fluorobenzonitrile (low) on each plate. IC50 values were determined by fitting to 4-parameter curves in GraphPad Prism.
A general note: In TR-FRET formats the signal depends on donor and acceptor labels being close together.

Experiment [2] addresses T1, folate receptor beta (Homo sapiens (Human), UniProt P14207). The experiment is described as follows: Folate receptor binding assay (fluorescence polarization). To be noted: 2.5 nM folate receptor beta, 2 nM FR-Cy probe, 2 hr incubation; read-out: FOLR2-FP. As to the method:
Folate receptor binding was measured in black 96-well plates using a fluorescence polarization assay. A fluorescent probe consisting of a folate analog linked to Cy5 (FR-Cy) was custom synthesized.
Test compounds were resuspended in DMSO and 3-fold serial dilutions were made from 300-0.015 μM (100× final concentrations). Binding reactions were conducted in 200 μl final volume in 20 mM Hepes (pH 7.5) 250 mM NaCl 0.0150 Tween-20 1% DMSO with 2.5 nM folate receptor beta (Acro Biosystems) and 2 nM probe. Fluorescence polarization was measured using λex=620 nm, λem=688 nm on an Envision plate reader (Perkin Elmer) after 2 hr incubation time. Dose responses were conducted in duplicate and normalized to the response with DMSO (high) and 1 μM folic acid (low) on each plate. IC50 values were determined by fitting to 4-parameter curves in GraphPad Prism.
A general note: Polarisation of emitted light reports the rotation of a fluorescent probe.

In experiment [3] the target is T1, folate receptor beta. Description: Folate receptor SPR assay (biotinylated folate receptor beta on streptavidin chip). The format is binding. To be noted: for Rmax: biotinylated folate receptor beta on streptavidin chip; for kd / Kd / kon: multi-cycle kinetics, 25° C., 1:1 model; for Kd: read-out: FOLR2Biotin - SPR Kd; for kon: pH 7.5, read-out: ka. On the procedure: Folate receptor SPR binding assays were conducted on a Biacore 8K instrument (Cytiva) using biotinylated folate receptor beta (Acro Biosystems). Briefly, folate receptor was immobilized at -550 RU on a streptavidin chip (Cytiva) in 10 mM HEPES pH 7.5, 150 mM NaCl, 0.05% Tween 20. Multi-cycle kinetic studies were conducted with 8 compound concentrations using 2-fold dilutions in 10 mM HEPES pH 7.5, 150 mM NaCl, 0.05% Tween 20, 2% DMSO at 25° C. A flow rate or 75 μl/mmn with an association time of 120 s and a dissociation time of 600 s were used. Surfaces were regenerated with 4 M MgCl2 at 30 μl/min for 30 s. Data were fit to a 1:1 model to determine the reported binding parameters.
A general note: SPR reads the build-up and loss of mass on a sensor chip optically.

The target in experiment [4] is TNFα and streptavidin immobilized FOL2R (Homo sapiens (Human), UniProt P01375+P14207). The experiment is described as follows: Ternary complex SPR assay. The format is binding. The conditions noted are these: 10 nM compound, max response normalized to expected response; for TC 60 nM taggless TNF normalized: 60 nM untagged TNF; for TC 300 nM- tagless TNF Normalized: 300 nM untagged TNF. As to the method:
Folate receptor-TNFα ternary complex SPR assays were conducted on a Biacore 8K instrument (Cytiva) using biotinylated folate receptor beta (Acro Biosystems). Folate receptor was immobilized at -1800 RU on a streptavidin chip (Cytiva) in 10 mM HEPES pH 7.5, 150 mM NaCl, 0.05% Tween 20. Untagged TNF was preincubated with 10 nM compound for 6 hr in 10 mM HEPES pH 7.5, 150 mM NaCl, 0.05 Tween 20, 2% DMSO at 25° C. Samples were then injected over the folate receptor surface at 30 μl/min with an association time of 110 s and a dissociation time of 600 s. Surfaces were regenerated with 4 M MgCl2 at 30 μl/mm for 30 s. The maximum measured response was normalized by comparison to the maximum expected response for each compound.

Usually Kd stands for the constant that tells how readily two partners part at equilibrium.

Sequence of TNFα and streptavidin immobilized FOL2R (P14207 17-230): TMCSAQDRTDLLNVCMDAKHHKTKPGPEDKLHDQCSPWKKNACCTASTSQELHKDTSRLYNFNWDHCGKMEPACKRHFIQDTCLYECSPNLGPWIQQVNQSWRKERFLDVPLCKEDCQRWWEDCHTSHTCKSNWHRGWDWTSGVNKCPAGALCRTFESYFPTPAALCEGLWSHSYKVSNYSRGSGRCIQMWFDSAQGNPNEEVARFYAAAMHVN
Sequence of TNFα and streptavidin immobilized FOL2R (P01375 77-233): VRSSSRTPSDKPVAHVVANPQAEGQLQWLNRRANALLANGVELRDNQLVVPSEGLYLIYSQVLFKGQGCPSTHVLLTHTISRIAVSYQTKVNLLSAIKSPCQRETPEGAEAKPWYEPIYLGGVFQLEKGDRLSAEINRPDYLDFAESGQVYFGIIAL
Sequence of TNFα (P01375 77-233): as above
T1 sequence (P14207 17-255): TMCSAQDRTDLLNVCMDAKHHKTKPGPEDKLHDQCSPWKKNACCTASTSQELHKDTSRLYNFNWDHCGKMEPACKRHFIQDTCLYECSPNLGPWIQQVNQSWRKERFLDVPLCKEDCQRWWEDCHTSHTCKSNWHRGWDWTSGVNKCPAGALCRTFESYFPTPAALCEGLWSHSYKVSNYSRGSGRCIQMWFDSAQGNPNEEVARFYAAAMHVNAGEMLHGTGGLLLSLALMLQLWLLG

Consider `Cc1nc2cc(F)c(-c3cnc(N4CCN(C(=O)COCCOCCOCCOCCOCCOCCn5cc(CC[C@H](NC(=O)c6ccc(CCc7ccc8nc(N)nc(O)c8c7)cc6)C(=O)O)nn5)CC4)nc3)nc2c(N[C@H](C)c2cc(C#N)ccc2F)c1Cl` [Compound I-82, (S)-2-(4-(2-(2-amino-4-hydroxyquinazolin-6-yl)ethyl)benzamido)-4-(1-(20-(4-(5-(7-chloro-8-(((R)-1-(5-cyano-2-fluorophenyl)ethyl)amino)-3-fluoro-6-methyl-1,5-naphthyridin-2-yl)pyrimidin-2-yl)piperazin-1-yl)-20-oxo-3,6,9,12,15,18-hexaoxaicosyl)-1H-1,2,3-triazol-4-yl)butanoic acid], for which, in experiment [1], the IC50 stood at 19 nM. In addition, the IC50 in experiment [2] is 4.9 nM. In addition, in experiment [3], the Rmax is recorded as 14.5 RU, the kd is 0.000591 s⁻¹, the Kd was determined as 0.031 nM and the kon amounted to 1.91e+07 M⁻¹ s⁻¹. In experiment [4], the “TC 60 nM taggless TNF normalized” value is given as 15.7% and the “TC 300 nM- tagless TNF Normalized” value was 24.9%.

Turning to `Cc1nc2cc(F)c(-c3cnc(N4CCN(C(=O)COCCOCCN5CCC6(CC5)CCN(C(=O)CC[C@H](NC(=O)c5ccc(NCc7cnc8nc(N)nc(O)c8n7)cc5)C(=O)O)CC6)CC4)nc3)nc2c(N[C@H](C)c2cc(C#N)ccc2F)c1Cl` [Compound I-84, (S)-2-(4-(((2-amino-4-hydroxypteridin-6-yl)methyl)amino)benzamido)-5-(9-(2-(2-(2-(4-(5-(7-chloro-8-(((R)-1-(5-cyano-2-fluorophenyl)ethyl)amino)-3-fluoro-6-methyl-1,5-naphthyridin-2-yl)pyrimidin-2-yl)piperazin-1-yl)-2-oxoethoxy)ethoxy)ethyl)-3,9-diazaspiro[5.5]undecan-3-yl)-5-oxopentanoic acid], in experiment [1], the IC50 was determined as 9 nM. Moreover, the IC50 in experiment [2] came to 6.9 nM. Further, in experiment [3], the Rmax is 19.7 RU, the kd was determined as 0.000153 s⁻¹, the Kd came out at 0.0059 nM and the kon worked out at 2.59e+07 M⁻¹ s⁻¹. In experiment [4], the “TC 60 nM taggless TNF normalized” value was determined as 10.8% and the “TC 300 nM- tagless TNF Normalized” value stood at 17.3%. Besides, the “TC 150 nM- tagless TNF Normalized” value in experiment [4] (150 nM untagged TNF) is 17.4%.

With `Cc1nc2cc(F)c(-c3cnc(N4CCN(C(=O)COCCOCCOCCOCCOCCOCCn5cc(CC[C@H](NC(=O)c6ccc(N(C)Cc7ccc8nc(N)[nH]c(=O)c8c7)cc6)C(=O)O)nn5)CC4)nc3)nc2c(N[C@H](C)c2cc(C#N)ccc2F)c1Cl` [Compound I-85, (S)-2-(4-(((2-amino-4-oxo-3,4-dihydroquinazolin-6-yl)methyl)(methyl)amino)benzamido)-4-(1-(20-(4-(5-(7-chloro-8-(((R)-1-(5-cyano-2-fluorophenyl)ethyl)amino)-3-fluoro-6-methyl-1,5-naphthyridin-2-yl)pyrimidin-2-yl)piperazin-1-yl)-20-oxo-3,6,9,12,15,18-hexaoxaicosyl)-1H-1,2,3-triazol-4-yl)butanoic acid], the IC50 in experiment [1] was 13 nM. Further, in experiment [2], the IC50 is 12 nM. Besides, in experiment [3], the Rmax worked out at 11.9 RU, the kd worked out at 0.00112 s⁻¹, the Kd worked out at 0.088 nM and the kon amounted to 1.27e+07 M⁻¹ s⁻¹. In addition, in experiment [4], the “TC 60 nM taggless TNF normalized” value amounted to 9.7% and the “TC 300 nM- tagless TNF Normalized” value was 15.1%.
